Source: US9963467B2, “Boronic acid derivatives and therapeutic uses thereof” (Rempex Pharmaceuticals, Inc., priority 2014, dated 2018)

Experiments:
ec302 (TEM-10) [1] = assay: Aztreonam potentiation (MPC@4), ec302; format: cell-based; conditions: BLI with aztreonam at 4 μg/mL
KP1005 (CTX-M-14) [2] = assay: Tigemonam potentiation (MPC@4), KP1005; format: cell-based; conditions: BLI with tigemonam at 4 μg/mL
ec308 (SHV-5) [3] = assay: Tigemonam potentiation (MPC@4), ec308; format: cell-based
ec302 (TEM-10) [4] = assay: Tigemonam potentiation (MPC@4), ec302; format: cell-based
EC1010 (CMY-6) [5] = assay: Tigemonam potentiation (MPC@4), EC1010; format: cell-based; conditions: BLI with tigemonam at 4 μg/mL
Pa AmpC = Pa AmpC (Pseudomonas aeruginosa, UniProt P24735); assay: Ki, nitrocefin cleavage by purified enzyme, Pa AmpC; format: biochemical; conditions: nitrocefin reporter substrate; read-out: Ki (Pa AmpC, NCF)
Pa AmpC, sequence (P24735 27-397): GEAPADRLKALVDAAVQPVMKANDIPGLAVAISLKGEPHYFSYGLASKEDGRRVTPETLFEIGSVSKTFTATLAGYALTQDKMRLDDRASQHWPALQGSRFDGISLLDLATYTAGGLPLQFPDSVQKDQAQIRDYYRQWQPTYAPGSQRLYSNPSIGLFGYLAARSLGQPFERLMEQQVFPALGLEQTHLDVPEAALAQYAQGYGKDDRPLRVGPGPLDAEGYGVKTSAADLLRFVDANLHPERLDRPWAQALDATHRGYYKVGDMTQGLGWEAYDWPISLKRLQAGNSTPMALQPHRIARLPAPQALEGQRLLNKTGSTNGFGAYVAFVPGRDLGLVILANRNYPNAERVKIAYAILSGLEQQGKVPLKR
Method in brief: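 Kinetic read at 490 nm (every 10 sec, 10 min) of nitrocefin cleavage; purified enzyme preincubated 10 min at room temperature with inhibitor series; Ki determined.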

PAM1032/KPC-2 = assay: Biapenem potentiation MPC64, PAM1032/KPC-2 (efflux proficient); format: cell-based, Pseudomonas aeruginosa; conditions: BLI to decrease MIC of biapenem 64-fold; MexAB-OprM overexpressed
Method: Efflux of BLIs from Pseudomonas aeruginosa by the MexAB-OprM efflux pump was also evaluated. […] Due to expression of KPC-2 both strains became resistant to biapenem. […] Potency of BLIs to potentiate biapenem in these strains was determined. […] The ratio of MPC64 values for each BLI in PAM1032/KPC-2 (efflux proficient) and PAM1154/KPC-2 (efflux deficient) was determined to generate the Efflux Index (EI).

KP1005 (CTX-M-14) [6] = assay: Aztreonam potentiation (MPC@4), KP1005; format: cell-based; conditions: BLI with aztreonam at 4 μg/mL
ec308 (SHV-5) [7] = assay: Aztreonam potentiation (MPC@4), ec308; format: cell-based; conditions: BLI with aztreonam at 4 μg/mL
KP1010 (SHV-12) [8] = assay: Aztreonam potentiation (MPC@4), KP1010; format: cell-based
ECL1002 [9] = assay: Aztreonam potentiation (MPC@4), ECL1002; format: cell-based; conditions: BLI with aztreonam at 4 μg/mL
EC1010 (CMY-6) [10] = assay: organism not typed; format: cell-based
KP1009 (CTX-M-15) [11] = assay: Tigemonam potentiation (MPC@4), KP1009; format: cell-based; conditions: BLI with tigemonam at 4 μg/mL
KP1010 (SHV-12) [12] = assay: Tigemonam potentiation (MPC@4), KP1010; format: cell-based
ECL1002 [13] = assay: Tigemonam potentiation (MPC@4), ECL1002; format: cell-based; conditions: BLI with tigemonam at 4 μg/mL
P99 = P99 (Enterobacter cloacae, UniProt P05364); assay: Ki, nitrocefin cleavage by purified enzyme, P99; format: biochemical; conditions: nitrocefin reporter substrate; read-out: Ki (P99, NCF)
P99, sequence (P05364 21-381): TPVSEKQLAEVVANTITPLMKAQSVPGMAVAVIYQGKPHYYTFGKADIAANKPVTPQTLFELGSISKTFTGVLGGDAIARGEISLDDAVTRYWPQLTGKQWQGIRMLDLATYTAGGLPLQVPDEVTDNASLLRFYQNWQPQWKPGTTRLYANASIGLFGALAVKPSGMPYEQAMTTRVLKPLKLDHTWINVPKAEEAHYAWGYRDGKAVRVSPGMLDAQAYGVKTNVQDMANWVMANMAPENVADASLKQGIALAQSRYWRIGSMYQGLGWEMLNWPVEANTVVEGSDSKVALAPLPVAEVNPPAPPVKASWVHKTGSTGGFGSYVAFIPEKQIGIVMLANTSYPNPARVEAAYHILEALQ
Method in brief: (§1)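 Purified enzyme was preincubated with a range of inhibitor concentrations in reaction buffer for 10 min at room temperature. Nitrocefin was then added and its cleavage followed at 490 nm every 10 sec for 10 min.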

KP1004 (KPC-2) [14] = assay: Biapenem potentiation (MPC@1), KP1004; conditions: BLI with biapenem at 1 μg/mL
KP1086 (OXA-48) = assay: Biapenem potentiation (MPC@1), KP1086; conditions: BLI with biapenem at 1 μg/mL
KP1009 (CTX-M-15) [15] = assay: organism not typed; format: cell-based
KP1004 (KPC-2) [16] = assay: Aztreonam potentiation (MPC@4), KP1004; format: cell-based; conditions: BLI with aztreonam at 4 μg/mL
CTX-M-14 = CTX-M-14 (Escherichia coli, UniProt Q9L5C7); assay: Ki, nitrocefin cleavage by purified enzyme, CTX-M-14; format: biochemical; conditions: nitrocefin reporter substrate; read-out: Ki (CTX-M-14, NCF)
CTX-M-14, sequence (Q9L5C7 29-291): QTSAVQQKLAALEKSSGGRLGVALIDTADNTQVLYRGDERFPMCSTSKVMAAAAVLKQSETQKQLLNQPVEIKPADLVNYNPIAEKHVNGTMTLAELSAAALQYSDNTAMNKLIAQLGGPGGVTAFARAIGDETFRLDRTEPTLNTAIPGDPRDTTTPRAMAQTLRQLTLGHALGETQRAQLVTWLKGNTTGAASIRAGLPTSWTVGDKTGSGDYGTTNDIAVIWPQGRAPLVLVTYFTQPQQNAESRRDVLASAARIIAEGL
Method in brief: as §1

SHV-12 = SHV-12 (Klebsiella pneumoniae, UniProt P0AD64, E235K/G234S/L31Q); assay: Ki, nitrocefin cleavage by purified enzyme, SHV-12; format: biochemical; conditions: nitrocefin reporter substrate; read-out: Ki (SHV-12, NCF)
SHV-12, sequence (P0AD64 22-286 L31Q/G234S/E235K): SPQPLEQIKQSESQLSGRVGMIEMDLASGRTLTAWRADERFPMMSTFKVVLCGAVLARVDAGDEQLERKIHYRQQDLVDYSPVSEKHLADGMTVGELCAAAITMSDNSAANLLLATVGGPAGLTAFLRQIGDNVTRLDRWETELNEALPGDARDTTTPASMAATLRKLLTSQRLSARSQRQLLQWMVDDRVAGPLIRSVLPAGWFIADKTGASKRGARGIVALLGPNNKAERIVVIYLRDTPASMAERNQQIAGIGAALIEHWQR
Method in brief: as §1

KPC-2 = KPC-2 (Klebsiella pneumoniae, UniProt Q9F663); assay: Ki, nitrocefin cleavage by purified enzyme, KPC-2; format: biochemical; conditions: nitrocefin reporter substrate; read-out: Ki (KPC-2, NCF)
KPC-2, sequence (Q9F663 25-293, looked up, species assumed): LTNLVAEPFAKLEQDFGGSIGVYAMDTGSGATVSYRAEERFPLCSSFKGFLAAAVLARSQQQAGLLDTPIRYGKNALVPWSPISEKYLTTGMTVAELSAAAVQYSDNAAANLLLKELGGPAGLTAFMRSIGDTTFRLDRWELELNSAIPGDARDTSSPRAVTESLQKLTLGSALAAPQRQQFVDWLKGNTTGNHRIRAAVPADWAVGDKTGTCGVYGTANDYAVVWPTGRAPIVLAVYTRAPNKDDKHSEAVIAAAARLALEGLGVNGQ
Method in brief: as §1

OXA-48 = OXA-48 (Klebsiella pneumoniae, UniProt Q6XEC0); assay: Ki, nitrocefin cleavage by purified enzyme, OXA-48; format: biochemical; conditions: nitrocefin reporter substrate; read-out: Ki (OXA-48, NCF)
OXA-48, sequence (Q6XEC0 23-265, looked up, species assumed): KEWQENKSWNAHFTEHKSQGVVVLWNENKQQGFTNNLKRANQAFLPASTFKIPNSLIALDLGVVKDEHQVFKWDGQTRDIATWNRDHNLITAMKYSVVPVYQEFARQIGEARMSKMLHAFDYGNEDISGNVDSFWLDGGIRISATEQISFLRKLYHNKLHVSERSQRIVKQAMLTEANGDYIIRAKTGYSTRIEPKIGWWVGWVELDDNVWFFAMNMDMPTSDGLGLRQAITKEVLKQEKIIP
Method in brief: as §1

Structure (SMILES)	AZT MPC4 TEM-10 ec302 (ec302 (TEM-10) [1])	TIG MPC4 CTX-M-14 KP1005 (KP1005 (CTX-M-14) [2])	TIG MPC4 SHV-5 ec308 (ec308 (SHV-5) [3])	TIG MPC4 TEM-10 ec302 (ec302 (TEM-10) [4])	TIG MPC4 CMY-6 EC1010 (EC1010 (CMY-6) [5])	Ki (Pa AmpC) [nM]	PAM1032/KPC-2 Biapenem MPC64 (PAM1032/KPC-2)	AZT MPC4 CTX-M-14 KP1005 (KP1005 (CTX-M-14) [6])	AZT MPC4 SHV-5 ec308 (ec308 (SHV-5) [7])	AZT MPC4 SHV-12 KP1010 (KP1010 (SHV-12) [8])	AZT MPC4 ECL1002 (ECL1002 [9])	AZT MPC4 CMY-6 EC1010 (EC1010 (CMY-6) [10])	TIG MPC4 CTX-M-15 KP1009 (KP1009 (CTX-M-15) [11])	TIG MPC4 SHV-12 KP1010 (KP1010 (SHV-12) [12])	TIG MPC4 ECL1002 (ECL1002 [13])	Ki (P99) [nM]	BPM MPC1 KP1004 KPC-2 (KP1004 (KPC-2) [14])	BPM MPC1 OXA-48 KP1086 (KP1086 (OXA-48))	AZT MPC4 CTX-M-15 KP1009 (KP1009 (CTX-M-15) [15])	Ki (CTX-M-14) [nM]	other results
O=C(CSC1CNC1)N[C@H]1Cc2cccc(C(=O)O)c2OB1O [B, reference compound]	Y (MIC of 1 μg/mL to 10 μg/mL)	Y (MIC of 1 μg/mL to 10 μg/mL)	Y (key: X: MIC of less than 1 ng/mL; Y: MIC of 1 μg/mL to 10 μg/mL; Z: MIC of greater than 10 μg/mL)	Z (key: X: MIC of less than 1 ng/mL; Y: MIC of 1 μg/mL to 10 μg/mL; Z: MIC of greater than 10 μg/mL)	X (MIC of less than 1 μg/mL)	1 to 10	2.5														
O=C(CSC(F)F)N[C@H]1Cc2cccc(C(=O)O)c2OB1O [C, reference compound]		X (MIC of less than 1 μg/mL)	X (key: X: MIC of less than 1 μg/mL; Y: MIC of 1 μg/mL to 10 μg/mL; Z: MIC of greater than 10 μg/mL)	Y (key: X: MIC of less than 1 ng/mL; Y: MIC of 1 μg/mL to 10 μg/mL; Z: MIC of greater than 10 μg/mL)		< 1	80	X (MIC of less than 1 ng/mL)	X (MIC of less than 1 ng/mL)	X (key: X: MIC of less than 1 ng/mL; Y: MIC of 1 μg/mL to 10 μg/mL; Z: MIC of greater than 10 μg/mL)	Y (MIC of 1 μg/mL to 10 μg/mL)	X (key: X: MIC of less than 1 ng/mL; Y: MIC of 1 μg/mL to 10 μg/mL; Z: MIC of greater than 10 μg/mL)	X (MIC of less than 1 μg/mL)	X (key: X: MIC of less than 1 μg/mL; Y: MIC of 1 μg/mL to 10 μg/mL; Z: MIC of greater than 10 μg/mL)	Y (MIC of 1 μg/mL to 10 μg/mL)	1 to 10	X (MIC of less than 1 μg/mL)	Y (MIC of 1 μg/mL to 10 μg/mL)			
O=C(O)CC(=O)N[C@H]1Cc2cccc(C(=O)O)c2OB1O [D, reference compound]	Z (MIC of greater than 10 μg/mL)	Z (MIC of greater than 10 μg/mL)	Y (key: X: MIC of less than 1 ng/mL; Y: MIC of 1 μg/mL to 10 μg/mL; Z: MIC of greater than 10 μg/mL)	Z (key: X: MIC of less than 1 ng/mL; Y: MIC of 1 μg/mL to 10 μg/mL; Z: MIC of greater than 10 μg/mL)	X (MIC of less than 1 μg/mL)	> 10		Y (MIC of 1 μg/mL to 10 μg/mL)	Y (MIC of 1 μg/mL to 10 μg/mL)	Y (key: X: MIC of less than 1 ng/mL; Y: MIC of 1 μg/mL to 10 μg/mL; Z: MIC of greater than 10 μg/mL)	Y (MIC of 1 μg/mL to 10 μg/mL)		Y (MIC of 1 μg/mL to 10 μg/mL)	Y (key: X: MIC of less than 1 ng/mL; Y: MIC of 1 μg/mL to 10 μg/mL; Z: MIC of greater than 10 μg/mL)	X (MIC of less than 1 μg/mL)	> 10	X (MIC of less than 1 μg/mL)	Y (MIC of 1 μg/mL to 10 μg/mL)	Y (key: X: MIC of less than 1 ng/mL; Y: MIC of 1 μg/mL to 10 μg/mL; Z: MIC of greater than 10 μg/mL)	< 1	AZT MPC4 KPC-2 KP1004 (KP1004 (KPC-2) [16]): Y (MIC of 1 μg/mL to 10 μg/mL); Ki (SHV-12): 1 to 10 nM; Ki (KPC-2): > 10 nM; Ki (OXA-48): < 1 nM
NC(=O)CC(=O)N[C@H]1Cc2cccc(C(=O)O)c2OB1O [E, reference compound]		Y (MIC of 1 μg/mL to 10 μg/mL)	Y (key: X: MIC of less than 1 ng/mL; Y: MIC of 1 μg/mL to 10 μg/mL; Z: MIC of greater than 10 μg/mL)	Z (key: X: MIC of less than 1 ng/mL; Y: MIC of 1 μg/mL to 10 μg/mL; Z: MIC of greater than 10 μg/mL)				X (MIC of less than 1 ng/mL)	X (MIC of less than 1 ng/mL)	X (key: X: MIC of less than 1 ng/mL; Y: MIC of 1 μg/mL to 10 μg/mL; Z: MIC of greater than 10 μg/mL)	X (MIC of less than 1 ng/mL)	X (key: X: MIC of less than 1 ng/mL; Y: MIC of 1 μg/mL to 10 μg/mL; Z: MIC of greater than 10 μg/mL)	Y (MIC of 1 μg/mL to 10 μg/mL)	X (key: X: MIC of less than 1 μg/mL; Y: MIC of 1 μg/mL to 10 μg/mL; Z: MIC of greater than 10 μg/mL)	X (MIC of less than 1 μg/mL)		X (MIC of less than 1 μg/mL)	Y (MIC of 1 μg/mL to 10 μg/mL)	X (key: X: MIC of less than 1 ng/mL; Y: MIC of 1 μg/mL to 10 μg/mL; Z: MIC of greater than 10 μg/mL)	< 1	Ki (OXA-48): < 1 nM
CNC(=O)CC(=O)N[C@H]1Cc2cccc(C(=O)O)c2OB1O [G, reference compound]	Y (MIC of 1 μg/mL to 10 μg/mL)	Y (MIC of 1 μg/mL to 10 μg/mL)	Y (key: X: MIC of less than 1 ng/mL; Y: MIC of 1 μg/mL to 10 μg/mL; Z: MIC of greater than 10 μg/mL)	Z (key: X: MIC of less than 1 ng/mL; Y: MIC of 1 μg/mL to 10 μg/mL; Z: MIC of greater than 10 μg/mL)	X (MIC of less than 1 μg/mL)		40	Y (MIC of 1 μg/mL to 10 μg/mL)												< 1	
Nc1nnc(C(=O)N[C@H]2Cc3cccc(C(=O)O)c3OB2O)s1 [H, reference compound]	X (MIC of less than 1 ng/mL)	Y (MIC of 1 μg/mL to 10 μg/mL)	X (key: X: MIC of less than 1 μg/mL; Y: MIC of 1 μg/mL to 10 μg/mL; Z: MIC of greater than 10 μg/mL)	Y (key: X: MIC of less than 1 ng/mL; Y: MIC of 1 μg/mL to 10 μg/mL; Z: MIC of greater than 10 μg/mL)		< 1	80	Y (MIC of 1 μg/mL to 10 μg/mL)	X (MIC of less than 1 ng/mL)	X (key: X: MIC of less than 1 ng/mL; Y: MIC of 1 μg/mL to 10 μg/mL; Z: MIC of greater than 10 μg/mL)		X (key: X: MIC of less than 1 ng/mL; Y: MIC of 1 μg/mL to 10 μg/mL; Z: MIC of greater than 10 μg/mL)	X (MIC of less than 1 μg/mL)	X (key: X: MIC of less than 1 μg/mL; Y: MIC of 1 μg/mL to 10 μg/mL; Z: MIC of greater than 10 μg/mL)	X (MIC of less than 1 μg/mL)		X (MIC of less than 1 μg/mL)	Y (MIC of 1 μg/mL to 10 μg/mL)			
